The target in one assay is T1, AMPK α2/α1 CAT β1γ1 (Homo sapiens, UniProt P54619+P54646, A116S/A126G/A242I/C200S/E112D/E217D/E235Q/E34K/F89I/G228D/H108N/I233T/I32V/K62R/L254M/M114K/M246K/Q36E/R227C/R239P/T243S/T87S/V111L/V17I/V230I).
T1 construct: 6×His (N); made in house; host or cells: E. coli (tricistronic pET15-b construct)
Briefly: Chimeric AMPK complex activation assay. Format: biochemical. The settings on record: complex expressed in E. coli; read-out: EC50, allosteric activation. The source says: (§1) Figure 3 Regulatory Elements within the α-Linker Determine the Isoform Specificity of C2 (A) Diagram illustrating the domain organization of the AMPKα subunit with a global pairwise alignment of a section of the α-linker of human AMPKα1 (Q13131) and AMPKα2 (P54646). Regulatory elements in the α-linker are highlighted, including the α-hook as originally defined by [Xiao et al. (2011)] (pink) and the reassigned sequence (also known as α-RIM2) shaded in orange. The secondary structure for α1 is derived from PDB ID 2Y94. The table summarizes the sequences of the α1/α2 chimeras produced to examine the role of various structural elements in the activation of α2β1γ1 complexes by C2. (B–E) Human AMPKα1/α2 chimeras (defined in A) were generated as complexes with β1γ1 in E. coli. Purified active complexes were assayed for the activation of phosphotransferase activity by AMP and C2, as described in Figure 1. Results (line graphs) are expressed as the fold increase in activity relative to reactions performed in the absence of compound and represent the mean ± SD of three independent experiments. Complexes were also assayed for protection against dephosphorylation and inactivation by PP2Cα, as described in Figures 2C and 2D. Results (bar charts) are expressed as the mean (percentage of control) ± SD of three independent experiments. Representative blots of pT172 and total AMPKα are shown below the bar charts. TEXT PRINTED IN THE PICTURE: (B) C2: AMPK211 - α2/α1 CAT: EC50: ND | (B) AMP: AMPK211 - α2/α1 CAT: EC50: 1.3 ± 0.2 μM | (C) C2: AMPK211 - α2/α1 REG: EC50: 0.009 ± 0.0006 μM | (C) AMP: AMPK211 - α2/α1 REG: EC50: 3.1 ± 0.3 μM | (D) C2: AMPK211 - α2/α1 HOOK: EC50: ND | (D) AMP: AMPK211 - α2/α1 HOOK: EC50: 1.4 ± 0.2 μM | (E) C2: AMPK211 + α2/α1 LOOP: EC50: 0.013 ± 0.001 μM | (E) AMP: AMPK211 + α2/α1 LOOP: EC50: 2.7 ± 0.3 μM […]
(§2) AMPK phosphotransferase activity was assayed in reactions (50 μl) containing 50 mM HEPES, pH 7.4, 10 mM MgCl2, 0.1 mM EGTA, 1 mM DTT, 0.01% BRIJ-35, 100 μM [γ-^32P]ATP (∼250 CPM⋅pmol^−1) and 200 μM AMARA (AMARAASAAALARRR). Reactions were started by the addition of AMPK (5 mU), incubated for 20 min at 30°C and quenched by spotting onto P81 and immersion in 75 mM H3PO4. Washed filters were dried and [^32P] incorporation determined by Cherenkov counting. AMPK activity in cell extracts was determined by immunoprecipitation with AMPKα1 or AMPKα2 antibodies from 50 μg material, as previously described ([Hunter et al., 2011]). […]

The target of a further assay is T2, AMPK α2/α1 HOOK β1γ1 (Homo sapiens, UniProt P54619+P54646, A386E/C382H/K379R/P383T).
T2 construct: 6×His (N); made in house; host or cells: E. coli (tricistronic pET15-b construct)
T2 sequence (P54646 whole entry K379R/C382H/P383T/A386E): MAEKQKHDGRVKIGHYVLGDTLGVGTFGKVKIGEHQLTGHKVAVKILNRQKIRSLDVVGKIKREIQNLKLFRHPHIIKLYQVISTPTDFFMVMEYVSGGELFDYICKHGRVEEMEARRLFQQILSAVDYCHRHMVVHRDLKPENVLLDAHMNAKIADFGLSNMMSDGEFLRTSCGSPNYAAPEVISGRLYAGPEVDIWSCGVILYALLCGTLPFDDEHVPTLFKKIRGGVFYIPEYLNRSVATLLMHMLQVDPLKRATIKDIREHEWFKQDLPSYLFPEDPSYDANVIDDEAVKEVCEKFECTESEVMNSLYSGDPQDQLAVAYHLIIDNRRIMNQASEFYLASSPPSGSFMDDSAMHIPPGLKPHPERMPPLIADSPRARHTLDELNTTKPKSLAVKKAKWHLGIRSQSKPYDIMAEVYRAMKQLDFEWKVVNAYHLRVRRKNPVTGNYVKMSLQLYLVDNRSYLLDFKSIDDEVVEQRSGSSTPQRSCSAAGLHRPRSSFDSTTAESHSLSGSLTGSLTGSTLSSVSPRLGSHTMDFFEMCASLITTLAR
T2 sequence (Q9Y478 whole entry partner): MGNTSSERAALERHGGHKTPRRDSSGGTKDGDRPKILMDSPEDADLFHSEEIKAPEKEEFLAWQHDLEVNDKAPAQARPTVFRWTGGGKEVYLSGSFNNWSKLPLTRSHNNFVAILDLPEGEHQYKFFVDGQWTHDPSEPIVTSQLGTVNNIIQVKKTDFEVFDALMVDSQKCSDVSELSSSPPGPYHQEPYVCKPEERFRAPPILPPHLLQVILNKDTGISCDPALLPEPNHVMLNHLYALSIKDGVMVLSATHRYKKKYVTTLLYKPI
T2 sequence (P54619 whole entry): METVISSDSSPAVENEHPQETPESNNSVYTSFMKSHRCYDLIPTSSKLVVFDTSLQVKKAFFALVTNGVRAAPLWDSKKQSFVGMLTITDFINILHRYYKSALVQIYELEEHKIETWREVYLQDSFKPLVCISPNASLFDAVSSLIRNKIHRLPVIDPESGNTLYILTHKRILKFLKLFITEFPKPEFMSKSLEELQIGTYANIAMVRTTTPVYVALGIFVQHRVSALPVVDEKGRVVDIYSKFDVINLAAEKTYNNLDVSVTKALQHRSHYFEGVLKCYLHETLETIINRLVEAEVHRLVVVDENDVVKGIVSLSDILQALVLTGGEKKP
Briefly: Chimeric AMPK complex activation assay. The note with it: complex expressed in E. coli; read-out: EC50, allosteric activation. It counts as biochemical.
Source text: as §1, §2

T1 sequence (P54619 whole entry, stated change not applied): as the sequence (P54619 whole entry) above
T1 sequence (Q9Y478 whole entry, further chain): as the sequence (Q9Y478 whole entry partner) above
T1 sequence (P54646 other isoform, or with tags, fused parts or gaps with the stated changes): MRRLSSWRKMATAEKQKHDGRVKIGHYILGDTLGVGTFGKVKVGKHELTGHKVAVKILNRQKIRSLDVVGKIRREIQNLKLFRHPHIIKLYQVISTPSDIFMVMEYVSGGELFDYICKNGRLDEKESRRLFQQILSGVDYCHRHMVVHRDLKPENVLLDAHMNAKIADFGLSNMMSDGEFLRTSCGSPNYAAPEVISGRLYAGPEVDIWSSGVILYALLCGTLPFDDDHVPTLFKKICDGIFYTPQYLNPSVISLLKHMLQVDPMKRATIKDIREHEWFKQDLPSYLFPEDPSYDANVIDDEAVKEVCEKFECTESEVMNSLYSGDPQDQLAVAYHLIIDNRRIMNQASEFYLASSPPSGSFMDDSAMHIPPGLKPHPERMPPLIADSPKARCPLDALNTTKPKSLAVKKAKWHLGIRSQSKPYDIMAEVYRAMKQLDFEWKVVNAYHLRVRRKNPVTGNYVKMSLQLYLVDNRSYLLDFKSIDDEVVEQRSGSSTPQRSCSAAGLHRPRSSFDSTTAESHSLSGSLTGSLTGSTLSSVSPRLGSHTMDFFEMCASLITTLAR

Broadly, the EC50 is the midpoint of the concentration-response curve. For `Nc1ncnc2c1ncn2[C@@H]1O[C@H](COP(=O)(O)O)[C@@H](O)[C@H]1O` [AMP, reference compound], the EC50 at AMPK α2/α1 CAT β1γ1 came out at 1300 ± 200 nM; at AMPK α2/α1 HOOK β1γ1, 1400 ± 200 nM.

(Values after publication PMC4104029, “Mechanism of Action of Compound-13: An α1-Selective Small Molecule Activator of AMPK” (Chemistry & Biology, 2014).)
